Measured values taken from patent US20260144862A1, “MATERIALS AND METHODS TO TREAT EPSTEIN-BARR VIRUS (EBV) AND EBV-INDUCED DISEASES” (Medizinische Universität Wien, priority 2022, published 2026).

B1: Monalizumab: α-NKG2A blocking monoclonal antibodies (Innate Pharma) (antibody, chains of the INN, looked up, V domains shown)
VH: QVQLVQSGAEVKKPGASVKVSCKASGYTFTSYWMNWVRQAPGQGLEWMGRIDPYDSETHYAQKLQGRVTMTTDTSTSTAYMELRSLRSDDTAVYYCARGGYDFDVGTLYWFFDVWGQGTTVTVSS
VL: DIQMTQSPSSLSASVGDRVTITCRASENIYSYLAWYQQKPGKAPKLLIYNAKTLAEGVPSRFSGSGSGTDFTLTISSLQPEDFATYYCQHHYGTPRTFGGGTKVEIK

Legend:
NKG2A+ NK cells = assay: NKG2A+ NK cell inhibition assay; assay type: cell-based, human; conditions: K562-HLA-E*0101/0101 or K562-HLA-E*0103/0103 target cells pulsed with 300 μM LMP-1 peptide
Procedure: For the NKG2A^+ NK cell inhibition experiments, MACS-enriched CD56^+ cells were quickly thawed at 37° C., washed, and pre-activated overnight in RPMI, 10% FCS, 1% L-glutamine (all: Thermo Fisher Scientific), 10 ng/ml IL-12 (PeproTec) and 100 ng/ml IL-18 (Biozym Scientific) at 37° C. CD56^+ NK cells were then harvested by centrifugation at 400×g for 5 minutes and washed once with Opti-MVEM I Reduced Serum Medium (Gibco). The NK cells were then cultured together with peptide pulsed K562-HLA-E*0101/0101 or K562-HLA-E*0103/0103 cells (E:T, 1:2) and 5 μL mouse anti-human CD107-APC-H7 (BD) for 6 h. NK cells were then harvested, fixed with the FIX & PERM Cell Fixation & Cell Permeabilization Kit (Thermo-Scientific) and analysed by flow-cytometry, as described below.

NKG2A+ CD8+ T cells = assay: NKG2A+ CD8+ T cell inhibition assay; assay type: cell-based, human; conditions: K562-HLA-E*0101/0101 or K562-HLA-E*0103/0103 target cells pulsed with 300 μM peptide
Procedure: For the CD8^+ T cells experiments, CD8^+ MACS-enriched cells were quickly thawed at 37° C., washed once, and pre-activated overnight in RPMI, 10% FCS, 1% L-glutamine and 20 ng/ml IL-2 (PeproTec) at 37° C. CD8^+ T cells were then harvested by centrifugation (400×g, 5 min) and then washed once with Opti-MEM I Reduced Serum Medium. CD8^+ T cells were then cultured together with peptide pulsed K562-HLA-E*0101/0101 or K562-HLA-E*0103/0103 cells (E:T, 1:2), 1× monensin and 1× brefeldin A for 6 h. […] were harvested, fixed with the FIX & PERM Cell Fixation & Cell Permeabilization Kit and analysed by flow-cytometry, as described below.

EBV B95-8 isolate = assay: Virus (EBV) dissemination assay in K562-CR2-HLA-E cells; assay type: cell-based, Epstein-Barr virus; conditions: for viral spread (BZLF1+ K562-CR2-HLA-E cells); effect of peptide on NKG2A+ NK or NKG2A+ CD8+ T cell mediated prevention of the viral spread: 300 μM LMP-1 peptide, 2-14 days of co-culture; for inhibition of NKG2A+ CD8+ T cells in EBV-dissemination assay (granzyme B-expressing cells) / inhibition of NKG2A+ NK cells in EBV-dissemination assay (granzyme B-expressing cells): peptide-pulsed K562-CR2-HLA-E*0103/0103 and K562-CR2-HLA-E*0101/0101 cells; for inhibition of NKG2A+ CD8+ T cells in EBV-dissemination assay (granzyme B-expressing cells): sorted NKG2A+ CD8+ T cells; for inhibition of NKG2A+ NK cells in EBV-dissemination assay (granzyme B-expressing cells): sorted NKG2A+ NK cells
Procedure: For the virus dissemination assays, the marmoset B-lymphoblastoid cell line B95-8 was cultured in RPM1 1640 medium supplemented with 20 mM glutamine, 50 µg/ml gentamicin, 0.2 µg/ml amphotericin B and 10% FCS (Thermo-Scientific). Cells were then cultured in the presence of […] (Biomol) for two weeks. EBV was harvested from the supernatant and enriched by ultracentrifugation (30000 U/min, 90 min, 10° C.). The virus stocks were stored at −80° C. in RPMI 1640 medium+10% FCS+10% DMSO (all: Thermo-Scientific). The multiplicity of infection (MOI) of the viral stocks was determined on K562-CR2-HLA-E*0101/0101 and K562-CR2-HLA-E*0103/0103 cells by flow-cytometry.
RMA-S/HLA-E/LFA-3 cells (kindly provided by Chiara Romagnani, DRFZ, Berlin) were maintained in RPMI-1640+20 mM glutamine+10% FCS+20 μM β-mercaptoethanol+100 U/ml penicillin-streptomycin (all Thermo Fisher)+400 μg/ml hygromycin B+1 mg/ml G418 (both InvivoGen). 2×10^6 RMA-S/LFA3/HLA-E cells were incubated for 16 h at 37° C., 5% CO2, with 300 μM of respective peptides (Peptides&Elephants) in 1 ml serum-free OptiMEM (Thermo-Fisher). Cells were afterwards inactivated using 20 μg/mL Mitomycin C (Sigma Aldrich) at 37° C. for 30 minutes. Peptide pulsed RMA-S/LFA3/HLA-E cells were co-cultured with […] CFSE (Thermo-Fisher) stained CD56^+ or CD8^+ MACS-enriched cells for 7 days in RPMI+10% FCS. Proliferating (CFSE^low) NKG2A^+CD56^+ NK cells, NKG2A^+ CD8^+ T cells or […]-specific, HLA-E-restricted NKG2A^+ or NKG2A^− T cells were then sorted by FACS as described below.
Fresh K562-CR2-HLA-E*0101/0101 and K562-CR2-HLA-E*0103/0103 cells were then inactivated using 20 μg/mL Mitomycin C at 37° C. for 30 minutes and then infected with the EBV B95-8 isolate (MOI=1) for 24 h. The infected cells were then co-cultured together with the sorted NKG2A^+ CD56^+ NK cells, NKG2A^+ CD8^+ T cells or […]-specific, HLA-E-restricted NKG2A^+ or NKG2A^− T cells (E:T, 1:2). In some experiments, 300 μM of respective peptides was also added. At indicated time points, the cells were harvested and analyzed by flow-cytometry, as described below.

HLA-E = assay: LMP-1 dependent HLA-E up-regulation assay in GlialCAM370-389-specific B-cells; assay type: cell-based, human; conditions: B-cells from 24 healthy blood donors transfected with LMP-1 peptide, 16 h
Procedure: (§1) For the HLA-E stabilization experiments, 5×10^6 viable CFSE stained PBMCs were cultured in RPMI-1640+10% FCS in the presence of 10 μg GlialCAM370-389 ([…]), 10 μg of random 20 amino acid peptides (negative control, GenScript) or without peptides (non-peptide control) and 10 ng/mL IL-2 (Peprotech) at 37° C. Every three days, fresh 10 μg GlialCAM370-389 and 10 ng/mL IL-2 were added. After 7 days of co-culture, GlialCAM370-389-specific B-cells were sorted. 1×10^5 GlialCAM370-389-specific B-cells were then individually transfected with the indicated concentrations of the LMP-1 peptides (Peptides&Elephants) using the Pierce Protein Transfection Reagent according to the manufacturer's instructions (Thermo Fisher). After 16 h, the cells were either fixed and analyzed for HLA-E expression by flow cytometry, as described below, or washed once with Opti-MEM I Reduced Serum Medium (Gibco) and subsequently used in NKG2A^+ NK cell inhibition experiments. For the NKG2A^+ NK cell inhibition experiments, sorted NKG2A^+NKG2C^−NKG2D^− NK cells from 24 healthy blood donors were cultured together with peptide-pulsed GlialCAM370-389 B-cells (E:T, 1:1) for 6 h at 37° C. After co-cultivation, the supernatant was removed, cleared by centrifugation (1000×g, 5 min), and analyzed using IFNγ ELISA according to the manufacturer's recommendations (Thermo Fisher).

[1] = system: NKG2A+ NKG2C−NKG2D− NK cells; assay: NKG2A+ NK cell inhibition by LMP-1 peptide-transfected GlialCAM370-389-specific B-cells (IFNγ ELISA); assay type: cell-based, human; conditions: LMP-1 peptide-pulsed GlialCAM370-389-specific B-cells, E:T 1:1, 6 h
Procedure: as §1

[2] = system: NKG2A+ NKG2D−NKG2C− NK cells; assay: NK cell inhibition assay with GlialCAM370-389-specific cells, with or without NKG2A-blocking antibody (IFNγ ELISA); assay type: cell-based, human; conditions: 10 μg/mL antibody, 12 h co-culture
Procedure: For the NK cell inhibition assays, GlialCAM370-389-specific (CFSE^low) CD4^+ T-cells, CD8^+ T-cells, and CD138^+ plasma cells were sorted and co-cultured together in an E:T ratio of 1:1 with sorted CD56^+NKG2A^+ NKG2D^−NKG2C^− NK cells from 24 healthy blood donors in OptiMem (Thermo Fisher) for 12 h at 37° C. For some experiments α-NKG2A blocking monoclonal antibodies (Monalizumab, 10 μg/mL, Innate Pharma) was added to the co-culture. The supernatant was removed, cleared by centrifugation (1000×g, 5 min), and then used for IFNγ (both Thermo Fisher) according to the manufacturer's instructions.

Molecule	inhibition of NKG2A+ NK cells (NKG2A+ NK cells)	inhibition of NKG2A+ CD8+ T cells (IFNγ-expressing NKG2A+ CD8+ T cells) (NKG2A+ CD8+ T cells)	viral spread (BZLF1+ K562-CR2-HLA-E cells); effect of peptide on NKG2A+ NK or NKG2A+ CD8+ T cell mediated prevention of the viral spread (EBV B95-8 isolate)	inhibition of NKG2A+ CD8+ T cells in EBV-dissemination assay (granzyme B-expressing cells) (EBV B95-8 isolate)	inhibition of NKG2A+ NK cells in EBV-dissemination assay (granzyme B-expressing cells) (EBV B95-8 isolate)	upregulation of HLA-E on the surface of GlialCAM370-389-specific B-cells (HLA-E)	inhibition of NKG2A+ cells (IFNγ concentration in the supernatant) [1]	inhibition of NKG2A+ cells by GlialCAM370-389-specific cells from patients with MS when NKG2A-blocking antibody is added [2]
GGDPHLPTL [EBV LMP-1 peptide variant]	potent inhibition	potent inhibition	increased viral spread	caused the inhibition	caused the inhibition	stable upregulation of HLA-E	potently inhibited	–
GGDPPLPTL [EBV LMP-1 peptide variant]	potent inhibition	potent inhibition	increased viral spread	caused the inhibition	caused the inhibition	stable upregulation of HLA-E	potently inhibited	–
B1	–	–	–	–	–	–	–	reversible
